Bounds are passed on as bounds.

The test system of assay [1] is influenza A virus (A/PR/8/34). Description: MDCK cytopathic effect (CPE) cell protection assay, ATP detection. As to conditions: Influenza A virus, PR/8, MDCK, 72 h, Table 1; MDCK cells, A/PR/8/34, 72 hours, 50% cell protection, mean all; class symbol; read-out: MDCK IC50. Format: cell-based. (Protection from cytopathic effect is a common read-out in antiviral testing.)

For assay [2], the system named is influenza A virus (A/PR/8/34). Description: microbe, parasite or virus in culture. Format: cell-based. As to conditions: Influenza A virus, PR/8, Table 1, mean all, class symbol; for EC99: read-out: bDNA EC99; for EC50: viral RNA 50% of control wells, read-out: bDNA EC50.

Usually IC50 stands for the concentration needed to halve the response being measured. In general, EC99 refers to the point of the concentration-response curve where the effect stands at 99%. A word on the EC50: it is the concentration at which the effect is half-maximal. For the compound `CCC(C)(C)C(CC(=O)O)Nc1nc(-c2c[nH]c3ncc(F)cc23)c(C#N)cc1F` (stereo not drawn) [Compound 18, 3-[[5-cyano-3-fluoro-6-(5-fluoro-1H-pyrrolo[2,3-b]pyridin-3-yl)-2-pyridyl]amino]-4,4-dimethyl-hexanoic acid], the IC50 in assay [1] is < 300 nM. Moreover, in assay [2], the 99% effect concentration (EC99) was < 0.3 µM and the EC50 is < 300 nM.

Consider `CNS(=O)(=O)C[C@@H](Nc1nc(-c2c[nH]c3ncc(F)cc23)ncc1F)C(C)(C)C` [Compound 19, (S)-2-(5-fluoro-2-(5-fluoro-1H-pyrrolo[2,3-b]pyridin-3-yl)pyrimidin-4ylamino)-N,3,3-trimethylbutane-1-sulfonamide], for which the IC50 in assay [1] was < 300 nM. Moreover, in assay [2], the EC99 was < 0.3 µM and the concentration for a half-maximal effect (EC50) was < 300 nM.

For the compound `CC(C)(C)[C@@H](CCC(=O)O)Nc1nc(-c2c[nH]c3ncc(F)cc23)ncc1F` [Compound 20, (R)-4-((5-fluoro-2-(5-fluoro-1H-pyrrolo[2,3-b]pyridin-3-yl)pyrimidin-4-yl)amino)-5,5-dimethylhexanoic acid], the half-inhibitory concentration (IC50) in assay [1] is < 300 nM. In assay [2], the EC99 is < 0.3 µM and the EC50 was < 300 nM.

Consider `CC(C)(C)[C@@H](CS(=O)(=O)NC1CC1)Nc1nc(-c2c[nH]c3ncc(F)cc23)ncc1F` [Compound 21, (S)—N-Cyclopropyl-2-(5-fluoro-2-(5-fluoro-1H-pyrrolo[2,3-b]pyridin-3-yl)pyrimidin-4-ylamino)-3,3-dimethylbutane-1-sulfonamide], for which the IC50 in assay [1] is < 300 nM. For the same compound, in assay [2], the EC99 is < 0.3 µM and the EC50 was < 300 nM.

With `CC(C)(C)[C@@H](CS(N)(=O)=O)Nc1nc(-c2c[nH]c3ncc(F)cc23)ncc1F` [Compound 22, (S)-2-(5-fluoro-2-(5-fluoro-1H-pyrrolo[2,3-b]pyridin-3-yl)pyrimidin-4-ylamino)-3,3-dimethylbutane-1-sulfonamide], the half-maximal inhibitory concentration (IC50) in assay [1] is < 300 nM. In addition, in assay [2], the EC99 lay in the range of 0.3 to 3.3 µM and the EC50 is < 300 nM.

For `CCOC(=O)CC[C@@H](Nc1nc(-c2c[nH]c3ncc(F)cc23)ncc1F)C(C)(C)C` [Compound 23, (R)-ethyl 4-((5-fluoro-2-(5-fluoro-1H-pyrrolo[2,3-b]pyridin-3-yl)pyrimidin-4-yl)amino)-5,5-dimethylhexanoate], in assay [1], the IC50 lay in the range of 300 to 3300 nM. For the same compound, in assay [2], the 99% effect concentration (EC99) is > 3.3 µM and the concentration for a half-maximal effect (EC50) was 300 to 3300 nM.

Turning to `CC(C)(C)[C@@H](CO)Nc1nc(-c2c[nH]c3ncc(F)cc23)c(C#N)cc1F` [Compound 24, (S)-5-fluoro-2-(5-fluoro-1H-pyrrolo[2,3-b]pyridin-3-yl)-6-((1-hydroxy-3,3-dimethylbutan-2-yl)amino)nicotinonitrile], the IC50 in assay [1] was < 300 nM. For the same compound, in assay [2], the EC99 was < 0.3 µM and the EC50 is < 300 nM.

Turning to `CC(C)(C)[C@@H](CS(=O)(=O)O)Nc1nc(-c2c[nH]c3ncc(F)cc23)c(C#N)cc1F` [Compound 25, (S)-2-(5-cyano-3-fluoro-6-(5-fluoro-1H-pyrrolo[2,3-b]pyridin-3-yl)pyridin-2-ylamino)-3,3-dimethylbutane-1-sulfonic acid], in assay [1], the IC50 was < 300 nM. In assay [2], the EC99 was < 0.3 µM and the EC50 was < 300 nM.

As to `CC(C)(C)[C@@H](CO)Nc1nc(-c2c[nH]c3ncc(F)cc23)ncc1F` [Compound 32, (S)-2-(5-fluoro-2-(5-fluoro-1H-pyrrolo[2,3-b]pyridin-3-yl)pyrimidin-4-ylamino)-3,3-dimethylbutane-1-ol], in assay [1], the IC50 is < 300 nM. Also, in assay [2], the concentration for an effect of 99% (EC99) was < 0.3 µM and the EC50 was < 300 nM.

As to `CCNS(=O)(=O)C[C@@H](Nc1nc(-c2c[nH]c3ncc(F)cc23)ncc1F)C(C)(C)C` [Compound 33, (S)—N-Ethyl-2-(5-fluoro-2-(5-fluoro-1H-pyrrolo[2,3-b]pyridin-3-yl)pyrimidin-4-ylamino)-3,3-dimethylbutane-1-sulfonamide], the IC50 in assay [1] was < 300 nM. Besides, in assay [2], the EC99 is < 0.3 µM and the concentration giving a half-maximal response (EC50) is < 300 nM.

With `CCCNS(=O)(=O)C[C@@H](Nc1nc(-c2c[nH]c3ncc(F)cc23)ncc1F)C(C)(C)C` [Compound 34, (S)-2-(5-Fluoro-2-(5-fluoro-1H-pyrrolo[2,3-b]pyridin-3-yl)pyrimidin-4-ylamino)-3,3-dimethyl-N-propylbutane-1-sulfonamide], the IC50 in assay [1] was < 300 nM. Besides, in assay [2], the 99% effect concentration (EC99) lay within 0.3 to 3.3 µM and the EC50 is < 300 nM.

As for `COCCNS(=O)(=O)C[C@@H](Nc1nc(-c2c[nH]c3ncc(F)cc23)ncc1F)C(C)(C)C` [Compound 35, (S)-2-(5-Fluoro-2-(5-fluoro-1H-pyrrolo[2,3-b]pyridin-3-yl)pyrimidin-4-ylamino)-N-(2-methoxyethyl)-3,3-dimethylbutane-1-sulfonamide], in assay [1], the IC50 is < 300 nM. Also, in assay [2], the 99% effect concentration (EC99) lay within 0.3 to 3.3 µM and the EC50 is < 300 nM.

Consider `CNS(=O)(=O)C[C@H](Nc1nc(-c2c[nH]c3ncc(F)cc23)ncc1F)C(C)(C)C` [Compound 38, (R)-2-((5-fluoro-2-(5-fluoro-1H-pyrrolo[2,3-b]pyridin-3-yl)pyrimidin-4-yl)amino)-N,3,3-trimethylbutane-1-sulfonamide], for which the IC50 in assay [1] was > 3300 nM. In addition, in assay [2], the EC99 is > 3.3 µM and the EC50 was > 3300 nM.

For `CC(C)NS(=O)(=O)C[C@@H](Nc1nc(-c2c[nH]c3ncc(F)cc23)ncc1F)C(C)(C)C` [Compound 39], in assay [1], the half-inhibitory concentration (IC50) was < 300 nM. Moreover, in assay [2], the 99% effect concentration (EC99) is 0.3 to 3.3 µM and the 50% effective concentration (EC50) was < 300 nM.

In the case of `CC(C)(C)NS(=O)(=O)C[C@@H](Nc1nc(-c2c[nH]c3ncc(F)cc23)ncc1F)C(C)(C)C` [Compound 40], the concentration for half-maximal inhibition (IC50) in assay [1] is < 300 nM. In assay [2], the EC99 lay in the range of 0.3 to 3.3 µM and the concentration for a half-maximal effect (EC50) is < 300 nM.

As for `CC1([C@@H](CC(=O)O)Nc2nc(-c3c[nH]c4ncc(F)cc34)c(C#N)cc2F)CCCC1` [Compound 42, (R)-3-(5-cyano-3-fluoro-6-(5-fluoro-1H-pyrrolo[2,3-b]pyridin-3-yl)pyridin-2-ylamino)-3-(1-methylcyclopentyl)propanoic acid], the concentration for half-maximal inhibition (IC50) in assay [1] is < 300 nM. In assay [2], the concentration for an effect of 99% (EC99) is < 0.3 µM and the EC50 was < 300 nM.

As for `CC(C)(C)[C@@H](CC(=O)O)Nc1nc(-c2c[nH]c3ncc(C(F)(F)F)cc23)ncc1F` [Compound 43, (R)-3-((5-fluoro-2-(5-(trifluoromethyl)-1H-pyrrolo[2,3-b]pyridin-3-yl)pyrimidin-4-yl)amino)-4,4-dimethylpentanoic acid], in assay [1], the 50% inhibitory concentration (IC50) is < 300 nM. Further, in assay [2], the concentration for an effect of 99% (EC99) is < 0.3 µM and the EC50 was < 300 nM.

Regarding `CC(C)(C)[C@@H](CS(C)(=O)=O)Nc1nc(-c2c[nH]c3ncc(F)cc23)ncc1F` [Compound 46, (S)—N-(3,3-dimethyl-1-(methylsulfonyl)butan-2-yl)-5-fluoro-2-(5-fluoro-1H-pyrrolo[2,3-b]pyridin-3-yl)pyrimidin-4-amine], in assay [1], the half-inhibitory concentration (IC50) is < 300 nM. Moreover, in assay [2], the EC99 was > 3.3 µM and the concentration for a half-maximal effect (EC50) is 300 to 3300 nM.

Take `CC(C)(C)[C@@H](CC(=O)O)Nc1ccnc(-c2c[nH]c3ncc(F)cc23)n1` [Compound 47, (R)-3-((2-(5-fluoro-1H-pyrrolo[2,3-b]pyridin-3-yl)pyrimidin-4-yl)amino)-4,4-dimethylpentanoic acid]: the IC50 in assay [1] was < 300 nM. For the same compound, in assay [2], the 99% effect concentration (EC99) lay within 0.3 to 3.3 µM and the EC50 was < 300 nM.

`CC(C)(C)[C@@H](CC(=O)O)Nc1ccnc(-c2n[nH]c3ncc(F)cc23)n1` [Compound 48, (R)-3-((2-(5-fluoro-1H-pyrazolo[3,4-b]pyridin-3-yl)pyrimidin-4-yl)amino)-4,4-dimethylpentanoic acid]: the IC50 in assay [1] was < 300 nM. Moreover, in assay [2], the concentration for an effect of 99% (EC99) was in the range of 0.3 to 3.3 µM and the EC50 lay within 300 to 3300 nM.

Turning to `CC(C)(C)[C@@H](CO)Nc1nc(-c2c[nH]c3ncc(Cl)cc23)ncc1F` [Compound 49, (S)-2-((2-(5-chloro-1H-pyrrolo[2,3-b]pyridin-3-yl)-5-fluoropyrimidin-4-yl)amino)-3,3-dimethylbutan-1-ol], the 50% inhibitory concentration (IC50) in assay [1] was < 300 nM. In assay [2], the EC99 lay within 0.3 to 3.3 µM and the concentration giving a half-maximal response (EC50) is < 300 nM.

As to `CC(C)(C)C(Nc1nc(-c2c[nH]c3ncc(F)cc23)ncc1F)C1CC1C(=O)O` (stereo not drawn) [Compound 50, 2-(1-((5-fluoro-2-(5-fluoro-1H-pyrrolo[2,3-b]pyridin-3-yl)pyrimidin-4-yl)amino)-2,2-dimethylpropyl)cyclopropanecarboxylic acid], the half-maximal inhibitory concentration (IC50) in assay [1] is < 300 nM. In assay [2], the EC99 lay in the range of 0.3 to 3.3 µM and the EC50 is < 300 nM.

In the case of `CC(C)(C)N(CC(=O)O)Nc1nc(-c2c[nH]c3ncc(F)cc23)ncc1F` [Compound 53, 2-(1-(tert-butyl)-2-(5-fluoro-2-(5-fluoro-1H-pyrrolo[2,3-b]pyridin-3-yl)pyrimidin-4-yl)hydrazinyl)acetic acid], the IC50 in assay [1] is < 300 nM. In assay [2], the EC99 was 0.3 to 3.3 µM and the EC50 is < 300 nM.

Consider `CC(C)(C)N(CC(=O)O)Nc1nc(-c2c[nH]c3ncc(C(F)(F)F)cc23)ncc1F` [Compound 54, 2-(1-(tert-butyl)-2-(5-fluoro-2-(5-(trifluoromethyl)-1H-pyrrolo[2,3-b]pyridin-3-yl)pyrimidin-4-yl)hydrazinyl)acetic acid], for which, in assay [1], the IC50 was < 300 nM. Further, in assay [2], the EC99 fell in the range of 0.3 to 3.3 µM and the EC50 is < 300 nM.

For the compound `CC(C)(C)N(CC(=O)O)Nc1nc(-c2c[nH]c3ncc(Cl)cc23)ncc1F` [Compound 56, 2-(1-(tert-butyl)-2-(2-(5-chloro-1H-pyrrolo[2,3-b]pyridin-3-yl)-5-fluoropyrimidin-4-yl)hydrazinyl)acetic acid], the half-inhibitory concentration (IC50) in assay [1] is < 300 nM. Besides, in assay [2], the EC99 was < 0.3 µM and the concentration for a half-maximal effect (EC50) was < 300 nM.

The values above are taken from patent US10875855B2 (priority 2011, dated 2020).
